Literature values as cited in patent US20120321587A1, “COMPOSITIONS AND METHODS OF USE PERTAINING TO INSECTICIDE” (priority 2009, published 2012).

Test system: aphids
Conditions: nymphs and adults

Compound	efficacy in treating aphids
CCCCCCCCOC(=O)CC(C(=O)OCCCCCCCC)S(=O)(=O)O.[Na] (centres unmarked) [sodium dioctyl sulfosuccinate]	primary compound responsible for the observed insecticidal activity
CCCCCCCCCCCCOS(=O)(=O)[O-].[Na+] [sodium lauryl sulfate]	limited efficacy
